Experimental data taken from PubChem BioAssay (NCI).
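48-hour exposure; five concentrations; linearly interpolated endpoints. TGI: total growth inhibition.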

Assays:
Assay in all cases: NCI-60 cell line screen, 48 h
[1] = test system: 786-0 renal
[2] = test system: A498 renal
[3] = test system: A549 NSCLC
[4] = test system: ACHN renal
[5] = test system: BT-549 breast
[6] = test system: CAKI-1 renal
[7] = test system: COLO 205 colon
[8] = test system: DU-145 prostate
[9] = test system: EKVX NSCLC
[10] = test system: HCC-2998 colon
[11] = test system: HCT-116 colon
[12] = test system: HCT-15 colon
[13] = test system: HOP-62 NSCLC
[14] = test system: HOP-92 NSCLC
[15] = test system: HT29 colon
[16] = test system: IGROV1 ovarian
[17] = test system: KM12 colon
[18] = test system: LOX IMVI melanoma
[19] = test system: M14 melanoma
[20] = test system: MALME-3M melanoma
[21] = test system: MCF7 breast
[22] = test system: MDA-MB-231 breast
[23] = test system: MDA-MB-435
[24] = test system: MDA-N
[25] = test system: MOLT-4 leukemia
[26] = test system: NCI-H226 lung
[27] = test system: NCI-H23 lung
[28] = test system: NCI-H460 lung
[29] = test system: NCI-H522 lung
[30] = test system: NCI/ADR-RES ovarian
[31] = test system: OVCAR-3 ovarian
[32] = test system: OVCAR-4 ovarian
[33] = test system: OVCAR-5 ovarian
[34] = test system: OVCAR-8 ovarian
[35] = test system: PC-3 prostate
[36] = test system: RPMI-8226 leukemia
[37] = test system: RXF 393 renal
[38] = test system: SF-268 CNS
[39] = test system: SF-295 CNS
[40] = test system: SF-539 CNS
[41] = test system: SK-MEL-2 melanoma
[42] = test system: SK-MEL-28 melanoma
[43] = test system: SK-MEL-5 melanoma
[44] = test system: SK-OV-3 ovarian
[45] = test system: SN12C renal
[46] = test system: SNB-19 CNS
[47] = test system: SNB-75 CNS
[48] = test system: SR leukemia
[49] = test system: SW-620 colon
[50] = test system: T-47D breast
[51] = test system: TK-10 renal
[52] = test system: U251 CNS
[53] = test system: UACC-257 melanoma
[54] = test system: UACC-62 melanoma
[55] = test system: UO-31 renal
[56] = test system: CCRF-CEM leukemia
[57] = test system: HL-60(TB) leukemia
[58] = test system: K-562 leukemia

## C=C(C)C(=O)OC1CC2(C)OC(=CC2=O)C(C)CC2OC(=O)C(=C)C12 (stereo unspecified)
[1]
  TGI: 17.6 µM
[2]
  TGI: 37.6 µM
[3]
  TGI: 47.7 µM
[4]
  TGI: 14.4 µM
[5]
  TGI: 21.4 µM
[6]
  TGI: 9.02 µM
[7]
  TGI: 3.31 µM
[8]
  TGI: 18.7 µM
[9]
  TGI: 25.1 µM
[10]
  TGI: 24.8 µM
[11]
  TGI: 5.15 µM
[12]
  TGI: 5.19 µM
[13]
  TGI: 38.1 µM
[14]
  TGI: 28.7 µM
[15]
  TGI: 24.2 µM
[16]
  TGI: 25.4 µM
[17]
  TGI: 55.3 µM
[18]
  TGI: 17.8 µM
[19]
  TGI: 24.2 µM
[20]
  TGI: 16.1 µM
[21]
  TGI: 26.6 µM
[22]
  TGI: 38.8 µM
[23]
  TGI: 25.8 µM
[24]
  TGI: 7.98 µM
[25]
  TGI: > 35.1 µM
[26]
  TGI: > 62.8 µM
[27]
  TGI: 24.6 µM
[28]
  TGI: 29.7 µM
[29]
  TGI: 4.2 µM
[30]
  TGI: 69.8 µM
[31]
  TGI: 19 µM
[32]
  TGI: 20.1 µM
[33]
  TGI: 26.9 µM
[34]
  TGI: 35.6 µM
[35]
  TGI: 31.8 µM
[36]
  TGI: > 100 µM
[37]
  TGI: 5.62 µM
[38]
  TGI: > 100 µM
[39]
  TGI: 38.1 µM
[40]
  TGI: 14.2 µM
[41]
  TGI: 34.3 µM
[42]
  TGI: 30.2 µM
[43]
  TGI: 13.4 µM
[44]
  TGI: > 100 µM
[45]
  TGI: 36.7 µM
[46]
  TGI: 39.2 µM
[47]
  TGI: 49.2 µM
[48]
  TGI: > 24.7 µM
[49]
  TGI: 18.3 µM
[50]
  TGI: 27.8 µM
[51]
  TGI: 28.3 µM
[52]
  TGI: 74.5 µM
[53]
  TGI: 35.2 µM
[54]
  TGI: 27.7 µM
[55]
  TGI: 16.6 µM

## CC1(CO)OC(n2cnc3cncnc32)CC1O (stereo unspecified)
[1]
  TGI: > 100 µM
[2]
  TGI: > 100 µM
[3]
  TGI: > 100 µM
[4]
  TGI: > 100 µM
[5]
  TGI: > 100 µM
[6]
  TGI: > 100 µM
[56]
  TGI: > 100 µM
[7]
  TGI: > 100 µM
[8]
  TGI: > 100 µM
[9]
  TGI: > 100 µM
[10]
  TGI: > 100 µM
[11]
  TGI: > 100 µM
[12]
  TGI: > 100 µM
[57]
  TGI: > 100 µM
[13]
  TGI: > 100 µM
[14]
  TGI: > 100 µM
[15]
  TGI: > 100 µM
[16]
  TGI: > 100 µM
[58]
  TGI: > 100 µM
[17]
  TGI: > 100 µM
[19]
  TGI: > 100 µM
[20]
  TGI: > 100 µM
[21]
  TGI: > 100 µM
[22]
  TGI: > 100 µM
[23]
  TGI: > 100 µM
[24]
  TGI: > 100 µM
[25]
  TGI: > 100 µM
[26]
  TGI: > 100 µM
[27]
  TGI: > 100 µM
[28]
  TGI: > 100 µM
[29]
  TGI: > 100 µM
[30]
  TGI: > 100 µM
[31]
  TGI: > 100 µM
[32]
  TGI: > 100 µM
[33]
  TGI: > 100 µM
[34]
  TGI: > 100 µM
[35]
  TGI: > 100 µM
[36]
  TGI: > 100 µM
[37]
  TGI: > 100 µM
[38]
  TGI: > 100 µM
[39]
  TGI: > 100 µM
[40]
  TGI: > 100 µM
[41]
  TGI: > 100 µM
[42]
  TGI: > 100 µM
[43]
  TGI: > 100 µM
[44]
  TGI: > 100 µM
[45]
  TGI: > 100 µM
[46]
  TGI: > 100 µM
[48]
  TGI: > 100 µM
[49]
  TGI: > 100 µM
[50]
  TGI: > 100 µM
[51]
  TGI: > 100 µM
[52]
  TGI: > 100 µM
[53]
  TGI: > 100 µM
[54]
  TGI: > 100 µM
[55]
  TGI: > 100 µM
